The text below walks through data of patent publication US9221834B2 (Merck Sharp & Dohme Corp., priority 2010, dated 2015).

This assay deals with T1, recombinant CETP (rCETP) (Homo sapiens, UniProt P11597).
T1 sequence (P11597 18-493): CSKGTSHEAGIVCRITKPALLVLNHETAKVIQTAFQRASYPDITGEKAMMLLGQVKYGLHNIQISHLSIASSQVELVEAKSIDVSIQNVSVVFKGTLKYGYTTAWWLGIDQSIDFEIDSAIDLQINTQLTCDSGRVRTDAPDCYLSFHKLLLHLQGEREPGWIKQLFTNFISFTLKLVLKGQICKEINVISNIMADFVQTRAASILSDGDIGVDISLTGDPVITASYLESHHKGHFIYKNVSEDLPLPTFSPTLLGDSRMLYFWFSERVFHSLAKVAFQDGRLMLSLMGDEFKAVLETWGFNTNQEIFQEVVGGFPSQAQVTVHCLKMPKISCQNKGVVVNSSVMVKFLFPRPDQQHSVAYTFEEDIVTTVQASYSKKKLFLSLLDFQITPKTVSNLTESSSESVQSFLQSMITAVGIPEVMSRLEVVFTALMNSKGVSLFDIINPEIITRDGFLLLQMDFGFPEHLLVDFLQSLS
Nature of the assay: RTA assay using recombinant CETP (2% RTA). In kind it is biochemical. Put shortly:
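Compounds preincubated 1 h at 37 °C with assay cocktail (CETP buffer: 50 mM Tris pH 7.4, 100 mM NaCl, 1 mM EDTA; human HDL acceptor); transfer started with [3H]cholesteryl oleate- or [3H]triolein-labelled LDL, 60 min at 37 °C. LDL PEG-precipitated; supernatant counted by scintillation, blank-corrected; IC50 from 4-parameter sigmoidal fit of % inhibition vs DMSO control.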

Setting [1] is: RTA assay in 2% human serum, read-out: IC50.

Read-outs that look alike come from different tables or passages of the source.

Consider `COc1ccc(-c2ccc(C(=O)O)cc2C)cc1-c1ccc(N2CCC2)nc1CN1C(=O)O[C@H](c2cccc(C(F)(F)F)c2)[C@@H]1C` [Example 235], for which, under setting [1], the IC50 stood at 6 nM. `COc1ccc(-c2cnc(C(=O)O)cn2)cc1-c1ccc(N2CCC2)nc1CN1C(=O)O[C@H](c2cc(C(F)(F)F)cc(C(F)(F)F)c2)[C@@H]1C` [Example 95]: under setting [1], the IC50 is 34 nM. The same measure, in the same setting: with `COc1cc(F)c(-c2ccc(C(=O)O)cc2C)cc1-c1cnc(N2CCC2)nc1CN1C(=O)O[C@H](c2ccc(F)cc2)[C@@H]1C` [Example 279] the figure was 189 nM; with `COc1cc(F)c(-c2cc(C(F)(F)F)c(C(=O)O)cn2)cc1-c1cnc(N2CC(F)(F)C2)nc1CN1C(=O)O[C@H](c2cc(C(F)(F)F)cc(C(F)(F)F)c2)[C@@H]1C` [Example 190], 146 nM; with `COc1ccc([C@@H]2CC[C@@H](C(=O)O)C2)cc1-c1ccc(N2CCC2)nc1CN1C(=O)O[C@H](c2cc(C(F)(F)F)cc(C(F)(F)F)c2)[C@@H]1C` (single isomer, unassigned) [Example 239], 7 nM.

Regarding `COC(=O)CCc1ccc(OC)c(-c2ccc(N3CCC3)nc2CN2C(=O)O[C@H](c3ccc(F)c(F)c3)[C@@H]2C)c1` [Example 11], the IC50 under setting [1] was determined as 186 nM. Same read-out and setting: then `COC(=O)c1cnc(-c2ccc(OC)c(-c3ccc(N4CCC4)nc3CN3C(=O)O[C@H](c4cc(C(F)(F)F)cc(C(F)(F)F)c4)[C@@H]3C)c2)cn1` [Example 30], with 133 nM. For `C[C@H]1[C@@H](c2cc(C(F)(F)F)cc(C(F)(F)F)c2)OC(=O)N1Cc1nc(N2CC(F)(F)C2)ncc1-c1cc([C@H]2CC[C@H](C(=O)O)CC2)ccc1Cl` [Example 177], the IC50 under setting [1] worked out at 19 nM. Still for that read-out and setting: with `CCOC(=O)c1cc(C)c(-c2ccc(OC)c(-c3ccc(N4CCC4)nc3CN3C(=O)O[C@H](c4cc(C(F)(F)F)cc(C(F)(F)F)c4)[C@@H]3C)c2)n1C` [Example 56] the figure was 5 nM. Same read-out and setting: with `COc1ccc(-c2ccc(C(=O)O)cc2C)cc1-c1ccc(N2CCC2)nc1CN1C(=O)O[C@H](c2cc(C(F)(F)F)cc(C(F)(F)F)c2)[C@@H]1C` [Example 289] the figure was 7 nM; with `C[C@H]1[C@@H](c2cc(C(F)(F)F)cc(C(F)(F)F)c2)OC(=O)N1Cc1nc(N2CCC2)ccc1-c1cc(CCCO)ccc1OC1CC1` [Example 260], 12 nM; with `COc1cc(F)c(CCC(=O)O)cc1-c1c(C)cc(N2CCC2)nc1CN1C(=O)O[C@H](c2cc(C(F)(F)F)cc(C(F)(F)F)c2)[C@@H]1C` [Example 69], 5 nM.

As for `COc1ccc(CO)cc1-c1ccc(N2CCC2)nc1CN1C(=O)O[C@H](c2cc(C(F)(F)F)cc(C(F)(F)F)c2)[C@@H]1C` [Example 258], the IC50 under setting [1] was found to be 7 nM. In the case of `COc1ccc(CCC(N)=O)cc1-c1ccc(N2CCC2)nc1CN1C(=O)O[C@H](c2cc(C)cc(C)c2)[C@@H]1C` [Example 249, 3-[3-(6-azetidin-1-yl-2-{[(4S,5R)-5-(3,5-dimethylphenyl)-4-methyl-2-oxo-1,3-oxazolidin-3-yl]methyl}pyridin-3-yl)-4-methoxyphenyl]propanamide], the IC50 under setting [1] is 105 nM.

Take `COC(=O)c1ccc(-c2cc(-c3ccc(N4CCC4)nc3CN3C(=O)O[C@H](c4cc(F)cc(F)c4)[C@@H]3C)c(OC)cc2F)c(C)c1` [Example 21]: the IC50 under setting [1] is 22 nM. The same measure, in the same setting: then `COc1ccc(CCC(=O)O)cc1-c1ccc(N2CCC2)nc1CN1C(=O)O[C@H](c2cc(C)cc(C)c2)[C@@H]1C` [Example 228, 3-[3-(6-azetidin-1-yl-2-{[(4S,5R)-5-(3,5-dimethylphenyl)-4-methyl-2-oxo-1,3-oxazolidin-3-yl]methyl}pyridin-3-yl)-4-methoxyphenyl]propanoic acid], with 47 nM. Same read-out and setting: with `CCc1ccc(-c2ccc(C(=O)OC)cc2C)cc1-c1cnc(N2CC(OC)C2)nc1CN1C(=O)O[C@H](c2cc(C(F)(F)F)cc(C(F)(F)F)c2)[C@@H]1C` [Example 137] the figure was 605 nM. For `COc1ccc(CCC(=O)O)cc1-c1c(C)cc(N2CCC2)nc1CN1C(=O)O[C@H](c2cc(C(F)(F)F)cc(C(F)(F)F)c2)[C@@H]1C` [Example 61, 3-{3-[6-Azetidin-1-yl-2-({(4S,5R)-5-[3,5-bis(trifluoromethyl)phenyl]-4-methyl-2-oxo-1,3-oxazolidin-3-yl}methyl)-4-methylpyridin-3-yl]-4-methoxyphenyl}propanoic acid], under setting [1], the IC50 came to 5 nM. Still for that read-out and setting: with `COC(=O)C[C@H]1C[C@H](c2ccc(OC)c(-c3ccc(N4CCC4)nc3CN3C(=O)O[C@H](c4cc(C(F)(F)F)cc(C(F)(F)F)c4)[C@@H]3C)c2)C1` [Example 26] the figure was 7 nM; with `COc1c(F)cc(-c2ncc(C(=O)O)cc2Cl)cc1-c1cnc(N2CC(F)(F)C2)nc1CN1C(=O)O[C@H](c2cc(C(F)(F)F)cc(C(F)(F)F)c2)[C@@H]1C` [Example 188], 18 nM; with `COc1ccc([C@H]2C[C@@H](C(=O)O)C2)cc1-c1ccc(N2CCC2)nc1CN1C(=O)O[C@H](c2cc(C(F)(F)F)cc(C(F)(F)F)c2)[C@@H]1C` [Example 89], 29 nM.

`COCCCc1ccc(OC2CC2)c(-c2ccc(N3CCC3)nc2CN2C(=O)O[C@H](c3cc(C(F)(F)F)cc(C(F)(F)F)c3)[C@@H]2C)c1` [Example 261]: the IC50 under setting [1] came out at 42 nM. The same measure, in the same setting: then `COc1ccc([C@@H]2C[C@H]2C(=O)O)cc1-c1ccc(N2CCC2)nc1CN1C(=O)O[C@H](c2cccc(C)c2)[C@@H]1C` [Example 234], with 267 nM; and `COc1ccc(CCC(=O)O)cc1-c1ccc(N2CC(F)(F)C2)nc1CN1C(=O)O[C@H](c2cccc(OC(F)(F)F)c2)[C@@H]1C` [Example 297], with 375 nM; and `COC(=O)CCc1ccc(OC)c(-c2ccc(N3CCC3)nc2CN2C(=O)O[C@H](c3cc(C(F)(F)F)cc(C(F)(F)F)c3)[C@@H]2C)c1` [Example 1, Methyl 3-{3-[6-azetidin-1-yl-2-({(4S,5R)-5-[3,5-bis(trifluoromethyl)phenyl]-4-methyl-2-oxo-1,3-oxazolidin-3-yl}methy)pyridin-3-yl]-4-methoxyphenyl}propanoate], with 8 nM. Still for that read-out and setting: then `COc1ccc(C(C)(C)CC(=O)O)cc1-c1cnc(N2CCC2)nc1CN1C(=O)O[C@H](c2cc(C(F)(F)F)cc(C(F)(F)F)c2)[C@@H]1C` [Example 175], with 72 nM; and `COc1ccc([C@H]2CC[C@H](C(=O)O)CC2)cc1-c1c(C)cc(N2CCC2)nc1CN1C(=O)O[C@H](c2cc(F)cc(C(F)(F)F)c2)[C@@H]1C` [Example 292], with 7 nM. Consider `CCOC(=O)C[C@@H]1CCc2cc(OC)c(-c3ccc(N4CCC4)nc3CN3C(=O)O[C@H](c4cccc(C)c4)[C@@H]3C)cc21` [Example 206], for which, under setting [1], the IC50 worked out at 203 nM. As for `COC(=O)[C@@H]1CC[C@@H](c2ccc(OC)c(-c3ccc(N4CCC4)nc3CN3C(=O)O[C@H](c4cc(C(F)(F)F)cc(C(F)(F)F)c4)[C@@H]3C)c2)C1` (racemic) [Example 214], the IC50 under setting [1] worked out at 8 nM. Take `COc1ccc(CC(C)(C)C(=O)O)cc1-c1ccc(N2CCC2)nc1CN1C(=O)O[C@H](c2cc(C)cc(C)c2)[C@@H]1C` [Example 227]: the IC50 under setting [1] was 65 nM. Still for that read-out and setting: then `COc1cc2c(cc1-c1cnc(N3CC(F)(F)C3)nc1CN1C(=O)O[C@H](c3cc(C(F)(F)F)cc(C(F)(F)F)c3)[C@@H]1C)[C@H](CC(=O)O)CC2` [Example 159], with 55 nM.

`CCOC(=O)[C@@H]1C[C@@H]1c1ccc(OC)c(-c2ccc(N3CCC3)nc2CN2C(=O)O[C@H](c3cc(F)cc(F)c3)[C@@H]2C)c1` [Example 18]: the IC50 under setting [1] was 62 nM. In the case of `COC(=O)c1ccc(-c2ccc(OC)c(-c3cnc(N4CC(F)(F)C4)nc3CN3C(=O)O[C@H](c4cc(C(F)(F)F)cc(C(F)(F)F)c4)[C@@H]3C)c2)c(C)c1` [Example 131], the IC50 under setting [1] was 10 nM. Turning to `COc1ccc(-c2ccc(C(=O)O)cn2)cc1-c1ccc(N2CCC2)nc1CN1C(=O)O[C@H](c2cc(C(F)(F)F)cc(C(F)(F)F)c2)[C@@H]1C` [Example 121], the IC50 under setting [1] is 28 nM. The same measure, in the same setting: with `COC(=O)c1ccc(-c2ccc(OC)c(-c3ccc(N4CCC4)nc3CN3C(=O)O[C@H](c4cccc(C)c4)[C@@H]3C)c2)c(C)c1` [Example 212] the figure was 75 nM.

For `COc1cc2c(cc1-c1ccc(N3CCC3)nc1CN1C(=O)O[C@H](c3cc(C)cc(C)c3)[C@@H]1C)[C@H](CC(=O)O)CC2` [Example 230], the IC50 under setting [1] worked out at 95 nM. On the same count and under the same terms, then `CCOC(=O)[C@@H]1C[C@H]1c1ccc(OC)c(-c2ccc(N3CCC3)nc2CN2C(=O)O[C@H](c3ccc(F)c(F)c3)[C@@H]2C)c1` [Example 13], with 498 nM; and `COc1cc(F)c(-c2cnc(C(=O)O)cc2C)cc1-c1cnc(N2CC(F)(F)C2)nc1CN1C(=O)O[C@H](c2cc(C(F)(F)F)cc(C(F)(F)F)c2)[C@@H]1C` [Example 183], with 14 nM; and `COc1ccc(C2CCC(O)C2)cc1-c1ccc(N2CCC2)nc1CN1C(=O)O[C@H](c2cc(C(F)(F)F)cc(C(F)(F)F)c2)[C@@H]1C` (mixture of isomers) [Example 263], with 5 nM. Turning to `COc1ccc(-c2ccc(C(=O)O)cc2C)cc1-c1cnc(N2CCC2)nc1CN1C(=O)O[C@H](c2cc(Cl)cc(Cl)c2)[C@@H]1C` [Example 302], the IC50 (value printed with the example, serum level not stated there, read-out: RTA) was determined as 4.43 nM.
